Our source for the CC50 values is ChEMBL document CHEMBL1128108, “Synthesis and antitumor activity of camptothecin derivatives bearing five-membered heterocycle containing 10-substituents” (1995).

What all share (assay type): functional
Assay [1] relates to HCT-116. The experiment in a line: In vitro cytotoxicity assay was measured against human tumor HCT116 cell line using camptothecin as a standard. As to conditions: read-out: TD50 (the source's name).
Assay [2] has as its system L1210. The experiment in a line: In vitro cytotoxicity assay was measured against human tumor L1210 cell line using camptothecin as a standard. The conditions noted are these: Mus musculus, read-out: TD50 (the source's name).
For assay [3], the system named is KB. Kind of assay: In vitro cytotoxicity assay was measured against human tumor KB cell line using camptothecin as a standard. As to conditions: read-out: TD50 (the source's name).
Assay [4] has as its system L1210/Adr. The experiment in a line: In vitro cytotoxicity assay was measured against human tumor L1210/Adr cell line using camptothecin as a standard. As to conditions: Mus musculus, read-out: TD50 (the source's name).
For assay [5], the system named is MCF7. The experiment in a line: In vitro cytotoxicity assay was measured against human tumor MCF-7 cell line using camptothecin as a standard. As to conditions: read-out: TD50 (the source's name).
Assay [6] concerns HCT-116. Kind of assay: In vitro cytotoxicity assay was measured against human tumor HCT116 cell line. The conditions noted are these: read-out: TD50 (the source's name).
The subject of assay [7] is L1210. Kind of assay: In vitro cytotoxicity assay was measured against human tumor L1210 cell line. The conditions noted are these: Mus musculus, read-out: TD50 (the source's name).
Assay [8] relates to KB. The experiment in a line: In vitro cytotoxicity assay was measured against human tumor KB cell line. As to conditions: read-out: TD50 (the source's name).
Assay [9] relates to L1210/Adr. The experiment in a line: In vitro cytotoxicity assay was measured against human tumor L1210/Adr cell line. The conditions noted are these: Mus musculus, read-out: TD50 (the source's name).
Assay [10] relates to MCF7. Kind of assay: In vitro cytotoxicity assay was measured against human tumor MCF-7 cell line. The conditions noted are these: read-out: TD50 (the source's name).

Values after ≈ are worked out from the molar mass of the structure shown.

In the case of `CCC1(O)C(=O)OCc2c1cc1n(c2=O)Cc2cc3cc(OCCNC(=O)c4ccc[nH]4)ccc3nc2-1` (stereo not given), the CC50 in the assay on HCT-116 [1] was 0.01 ng/mL (≈ 0.02 nM); in the assay on L1210 [2] it was 0.1 ng/mL (≈ 0.2 nM); with KB [3], 0.4 ng/mL (≈ 0.799 nM); with L1210/Adr [4], 0.001 µg/mL (≈ 2 nM); in the assay with MCF7 [5] it was 0.26 µg/mL (≈ 519 nM).

As to `CCC1(O)C(=O)OCc2c1cc1n(c2=O)Cc2cc3cc(OCCNC(=O)c4ccco4)ccc3nc2-1` (stereo not given), the CC50 in the assay on HCT-116 [1] stood at 1 ng/mL (≈ 1.99 nM); in the assay on L1210 [2], 4 ng/mL (≈ 7.98 nM); in the assay on KB [3] it was 5 ng/mL (≈ 9.97 nM); in the assay with L1210/Adr [4] it was 0.015 µg/mL (≈ 29.9 nM); in the assay on MCF7 [5], 0.82 µg/mL (≈ 1640 nM).

Regarding `CC[C@@]1(O)C(=O)OCc2c1cc1n(c2=O)Cc2cc3ccccc3nc2-1` [CAMPTOTHECIN], the CC50 in the assay on HCT-116 [6] came to 6 ng/mL (≈ 17.2 nM); with L1210 [7], 0.01 µg/mL (≈ 28.7 nM); in the assay with KB [8] it was 8 ng/mL (≈ 23 nM); in the assay on L1210/Adr [9], 0.045 µg/mL (≈ 129 nM); in the assay with MCF7 [10], 0.01 µg/mL (≈ 28.7 nM).

`CCC1(O)C(=O)OCc2c1cc1n(c2=O)Cc2cc3cc(OCCNC(=O)c4cccn4C)ccc3nc2-1` (stereo not given): the CC50 with HCT-116 [1] was found to be 0.01 ng/mL (≈ 0.0194 nM); with L1210 [2], 0.2 ng/mL (≈ 0.389 nM); with KB [3], 0.5 ng/mL (≈ 0.972 nM); in the assay with L1210/Adr [4] it was 0.00095 µg/mL (≈ 1.85 nM); in the assay with MCF7 [5], 0.14 µg/mL (≈ 272 nM).

With `CCC1(O)C(=O)OCc2c1cc1n(c2=O)Cc2cc3cc(OCCNC(=O)c4cccs4)ccc3nc2-1` (stereo not given), the CC50 was found to be 0.04 ng/mL (≈ 0.0773 nM) in the assay on HCT-116 [1]; 0.1 ng/mL (≈ 0.193 nM) with L1210 [2]; 0.5 ng/mL (≈ 0.966 nM) in the assay with KB [3]; 0.0015 µg/mL (≈ 2.9 nM) in the assay with L1210/Adr [4]; 0.068 µg/mL (≈ 131 nM) with MCF7 [5].

For the compound `CCC1(O)C(=O)OCc2c1cc1n(c2=O)Cc2cc3cc(OCCNC(=O)C4CCCO4)ccc3nc2-1` (stereo not given), the CC50 in the assay on HCT-116 [1] was 55 ng/mL (≈ 109 nM); in the assay on L1210 [2], 50 ng/mL (≈ 98.9 nM); with KB [3] it was 69 ng/mL (≈ 136 nM); with L1210/Adr [4], 0.32 µg/mL (≈ 633 nM); with MCF7 [5], 0.9 µg/mL (≈ 1780 nM).

Turning to `CCC1(O)C(=O)OCc2c1cc1n(c2=O)Cc2cc3cc(OCCNC(=O)/C=C/c4ccco4)ccc3nc2-1` (stereo not given), the CC50 worked out at 65 ng/mL (≈ 123 nM) with HCT-116 [1]; 50 ng/mL (≈ 94.8 nM) in the assay with L1210 [2]; 83 ng/mL (≈ 157 nM) in the assay with KB [3]; 0.14 µg/mL (≈ 265 nM) in the assay on L1210/Adr [4]; 1 µg/mL (≈ 1900 nM) in the assay on MCF7 [5].

Consider `COc1cccc2c1C(=O)c1c(O)c3c(c(O)c1C2=O)C[C@@](O)(C(=O)CO)C[C@@H]3O[C@H]1C[C@H](N)[C@H](O)[C@H](C)O1` [DOXORUBICIN], for which the CC50 was found to be 30 ng/mL (≈ 55.2 nM) with HCT-116 [1]; 6 ng/mL (≈ 11 nM) in the assay on L1210 [2]; 15 ng/mL (≈ 27.6 nM) in the assay with KB [3]; 0.4 µg/mL (≈ 736 nM) in the assay with L1210/Adr [4]; 0.15 µg/mL (≈ 276 nM) in the assay on MCF7 [5].

Consider `CCC1(O)C(=O)OCc2c1cc1n(c2=O)Cc2cc3cc(OCCNC(=O)c4nccn4COC)ccc3nc2-1` (stereo not given), for which the CC50 turned out to be 3 ng/mL (≈ 5.5 nM) in the assay with HCT-116 [1]; 2 ng/mL (≈ 3.67 nM) in the assay on L1210 [2]; 7 ng/mL (≈ 12.8 nM) in the assay on KB [3]; 0.01 µg/mL (≈ 18.3 nM) in the assay on L1210/Adr [4]; 0.75 µg/mL (≈ 1370 nM) with MCF7 [5].

Turning to `CCC1(O)C(=O)OCc2c1cc1n(c2=O)Cc2cc3cc(OCCNC(=O)c4cccn4COC)ccc3nc2-1` (stereo not given), the CC50 in the assay on HCT-116 [1] is 0.7 ng/mL (≈ 1.29 nM); in the assay on L1210 [2] it was 1 ng/mL (≈ 1.84 nM); in the assay with KB [3], 5 ng/mL (≈ 9.18 nM); in the assay on L1210/Adr [4] it was 0.015 µg/mL (≈ 27.5 nM); in the assay with MCF7 [5], 0.12 µg/mL (≈ 220 nM).

As to `CCC1(O)C(=O)OCc2c1cc1n(c2=O)Cc2cc3cc(OCCNC(=O)S(=O)(=O)c4cccs4)ccc3nc2-1` (stereo not given), the CC50 with HCT-116 [1] worked out at 0.01 ng/mL (≈ 0.0172 nM); in the assay on L1210 [2], 0.085 ng/mL (≈ 0.146 nM); with KB [3], 0.5 ng/mL (≈ 0.86 nM); in the assay with L1210/Adr [4], 0.0001 µg/mL (≈ 0.172 nM); in the assay with MCF7 [5], 0.1 µg/mL (≈ 172 nM).
